Laboratory results as given in US4329347A, “Cardiotonic and antithrombotic sulfur-containing derivatives of carbostyril” (Boehringer Ingelheim GmbH, priority 1978, dated 1982).
Like-named read-outs stand apart in the source and are kept apart here.

Legend:
auricles (rat heart) = experiment: Positive inotropic activity on isolated rat auricles; parameters: species or system rats; details: 1×10^-5 gm/ml, 30° C., from the starting values, read-out: % Increase in Force of Contraction
Protocol: Rats were anesthetized with ether and subsequently killed by a blow on the neck. After opening the thorax, the heart was removed and both auricles were separated. The auricles were put into an organ bath of 100 ml containing a tyrode solution at a temperature of 30° C. The tyrode solution was infused with carbogen (95% of O2 and 5% of CO2). The spontaneous contractions of the auricles were registered isometrically. The auricles were weighted with 1 gm. The compounds in question were tested on 4 auricles each at 1×10^-5 gm/ml. The alteration of the contraction force was registered in % from the starting values.

mice = experiment: Acute toxicity, oral; type: in vivo; details: single oral dose of 1,000 mg/kg, 14 days observation
Protocol: (§1) The acute toxicity of the test compounds was determined on groups of 10 mice each after oral administration of a single dose of 1,000 mg/kg (observation time: 14 days).

Acute toxicity, oral = type: in vivo; details: mouse, in vivo; mice, single oral dose, 14 days observation; read-out: Acute Toxicity per os
Protocol: as §1

[1] = system: Platelet Thromboses in the Rat; experiment: Influence on platelet thromboses in the rat (electrical irritation of a vein); type: in vivo; details: male rats, five animals per dose, 20 minutes observation, vs. untreated group; dose not given
Protocol: Literature: H. Poliwoda, J. Lilli, G. Hagemann, D. Schyma: Z. ges. exp. Med., 145, 252 (1968)
Male rats (body weight between 70 and 90 grams) received an intraperitoneal Nembutal anesthesia (dose: 50 to 60 mg/kg). To avoid hypothermia, they were positioned on a heated test table (about 37° C.). The respiratory passage was held free by insertion of a tracheal cannula.
After a transverse abdominal incision was made, an intestinal loop was exposed and fixed, and a vein, with a diameter of about 300 μ was prepared. A monopolar platinum electrode embedded in glass and having a tip diameter of about 100μ was applied to the vein as an irritating cathode. The indifferent electrode was applied to the same vessel opposite the cathode. The irritation was provoked by 150 volts of direct current for a period of 100 milliseconds. After the irritation, the area of observation was continuously rinsed with warm (37° C.) physiological salt solution.
The formation and growth of the thrombosis was followed under a binocular microscope over a time period of 20 minutes. During the entire period of observation, the percentage of the vessel volume closed by the thrombosis was estimated at different time intervals.
Five animals per dose were used, and the results were averaged.
In the test compound experiments, the average size of the thrombosis in the treated animal group was compared with that of an untreated animal group. The result was given as "percentage reduction of the average thrombosis size." The following table contains the values obtained.

conscious mice = experiment: Prolongation of the bleeding time (mouse tail); type: in vivo; details: po, 10 mg/kg orally, after 1 hour, compared to control group, read-out: Prolongation of the bleeding time in % after one hour
Protocol: The function of the thrombocytes can be determined by measuring the bleeding time. The normal bleeding time in human beings is in the range of 1 to 3 minutes and needs intact thrombozytes in a sufficient number. If the number of thrombocytes is normal and the bleeding time is prolonged, this signifies a disturbed function of the thrombocytes. This is found in some congenital defects of thrombocyte function (V. Willebrand's disease, for example). If, on the other hand it is the aim to prevent spontaneous aggregation of the thrombocytes and occlusion in the arterial system by antithrombotic drugs, the bleeding time should be prolonged as a consequence. Therefore, using antithrombotic substances, a prolongation of the bleeding time is expected. If the plasma coagulation system is not influenced by such a medicine, coagulation tests will give a normal result.
To measure the bleeding time, 10 mg/kg of the test compound is administered orally to conscious mice. After 1 hour, 0.5 mm of the tip of the mousetail is cut off and droplets of blood are gently removed with filter paper every 30 second. The number of drops of blood give a measure for the bleeding time (5 animals/experiment).
The numbers in the following table represent the prolongation in % compared to the control group.

[2] = system: thrombocyte aggregation in platelet-rich plasma of healthy human donors; experiment: Thrombocyte aggregation inhibiting activity by the method of Born and Cross (platelet-rich plasma); type: cell-based; details: optical density
Protocol: 1. Determination of the thrombocyte aggregation inhibiting activity by the method of Born and Cross [J. Physiol. 170, 397 (1964)]:
The thrombocyte aggregation was measured in the platelet-rich plasma of healthy human donors. The decrease in optical density was measured and recorded photometrically after the addition of adenosine diphosphate or collagen. From the angle of inclination of the density curve, the rate of aggregation was estimated (Vmax). The optical density was taken as the point on the curve where the most light was transmitted (O.D.).
The EC50 values in the tables indicate the optical density.
Small doses of collagen were chosen, but sufficient to give irreversible aggregation. To provoke maximum aggregation, about 0.01 ml of the collagen solution was added to 1 ml of platelet-rich plasma. (Commercial collagen of Hormonchemie, Munich). The adenosine diphosphate (ADP) doses were chosen to give only the first phase of the BORN curve. The necessary amount of ADP was about 1×10^-6 mol/l. Commercial ADP of Boehringer Mannheim was used.
The substance dose which produced a 50% inhibition of the thrombozytes aggregation (EC50) was determined graphically.

[3] = system: phosphodiesterase (PDE), supernatant of human blood platelets; experiment: PDE inhibition (3H-cAMP hydrolysis); type: biochemical; details: human blood platelet PDE, 1 μmol/liter 3H-cAMP, pH 7.4, 15 minutes, 37° C.
Protocol: cAMP is hydrolysed to AMP by phosphodiesterase (PDE) from various sources, including blood platelets. This hydrolysis is inhibited by PDE inhibitors according to the concentration.
The phosphodiesterase used was the 10,000×g supernatant of human blood platelets which had been frozen with water and thawed out again.
An amount of 0.3 ml of a mixture which contained 0.1 mole/liter of trihydroxy-aminomethane (pH 7.4), 3 mmole/liter of magnesium chloride, 1 mmole/liter of AMP, 1 μmol/liter of ^3 H-cAMP (specific activity about 10 MBq/μmol), PDE as well as the substance to be tested and water for the control were incubated for 15 minutes at 37° C.
The incubation was stopped by the addition of 0.5 ml of zinc sulfate (0.266 mole/liter) and 0.5 ml of barium hydroxide (0.266 mole/liter), the precipitate was centrifuged and the activity remaining in the supernatant of the unreacted ^3 H-cAMP was determined. From a comparison of the substance preparations and the control preparations, the concentration for a 50% inhibiting activity (IC50) of the respective substance was calculated.

[4] = ADP-induced (about 1×10^-6 mol/l), read-out: EC50 (50% inhibition of thrombocyte aggregation), ADP
[5] = collagen-induced, read-out: EC50 (50% inhibition of thrombocyte aggregation), Collagen

Compound	activation at 10 µg/mL (auricles (rat heart)) [%]	animals died (acute toxicity per os) (mice)	LD50 at 336 h (Acute toxicity, oral) [mg/kg]	Percentage Reduction of the Average Thrombosis Size [1] [%]	change in vivo at 10 mg/kg (conscious mice) [%]	EC50 [2, 4] [µM]	EC50 [2, 5] [µM]	IC50 [3] [µM]
O=C1CCc2cc(OCCCC[S+]([O-])c3ccccc3)ccc2N1 (stereo not shown) [B, 6-(4-Phenylsulfinyl-butoxy)-3,4-dihydro-carbostyril]	30	0 out of 10 animals	> 1000	23	102	20	4	1.9
O=C1CCc2cc(OCCCCS(=O)(=O)c3ccccc3)ccc2N1 [Compound C, 6-(4-Phenylsulfonyl-butoxy)-3,4-dihydro-carbostyril]	35	0 out of 10 animals	> 1000	–	26	15	5	1.5
O=C1CCc2cc(OCCCC[S+]([O-])c3ccccn3)ccc2N1 (stereo not shown) [E, 6-[4-(2-Pyridyl-sulfinyl)-butoxy]-3,4-dihydro-carbostyril]	16	0 out of 10 animals	> 1000	16	152	25	6.5	3.9
O=C1CCc2cc(OCCCCS(=O)(=O)c3ccccn3)ccc2N1 [F, 6-[4-(2-Pyridyl-sulfonyl)-butoxy]-3,4-dihydro-carbostyril]	18	0 out of 10 animals	> 1000	–	91	20	20	3.8
O=C1CCc2cc(OCCCC[S+]([O-])c3ccc(Cl)cc3)ccc2N1 (stereo not shown) [I, 6-[4-(4-Chlorophenyl-sulfinyl)-butoxy]-3,4-dihydro-carbostyril]	52	0 out of 10 animals	> 1000	4	> 300	10	4	0.8
O=C1CCc2cc(OCCCC[S+]([O-])c3ccc4ccccc4c3)ccc2N1 (stereo not shown) [L, 6-[4-(2-Naphthyl-sulfinyl)-butoxy]-3,4-dihydro-carbostyril]	63	0 out of 10 animals	> 1000	–	15	10	1	0.14
COc1ccccc1[S+]([O-])CCCCOc1ccc2c(c1)CCC(=O)N2 (stereo not shown) [M, 6-[4-(2-Methoxyphenyl-sulfinyl)-butoxy]-3,4-dihydro-carbostyril]	65	0 out of 10 animals	> 1000	–	27	22	4	0.15
O=c1ccc2cc(OCCCC[S+]([O-])c3ccc(Cl)c(Cl)c3)ccc2[nH]1 (stereo not shown) [P, 6-[4-(3,4-Dichlorophenyl-sulfinyl)-butoxy]-carbostyril]	–	0 out of 10 animals	> 1000	15	12	1.8	0.2	0.22
Cc1cc(=O)[nH]c2ccc(OCCCC[S+]([O-])c3ccccc3)cc12 (stereo not shown) [Q, 4-Methyl-6-(4-phenylsulfinyl-butoxy)-carbostyril]	58	0 out of 10 animals	> 1000	22	39	40	3.6	0.64
O=C1CCc2cc(OCCCC[S+]([O-])c3cc(Cl)ccc3Cl)ccc2N1 (stereo not shown) [S, 6-[4-(2,5-Dichlorophenyl-sulfinyl)-butoxy]-3,4-dihydro-carbostyril]	83	0 out of 10 animals	> 1000	–	–	10	1	2.1
